Measured values from patent publication EP3400955B1, “USE OF CRYPTONIN FOR TREATMENT OF CANCER” (Istanbul Universitesi Rektorlugu, priority 2016, dated 2025).
Like-named read-outs stand apart in the source and are kept apart here. Ends that are not written are not given here.

Assays:
MCF-7 cells [1] = assay: Type of cell death by acridine orange/ethidium bromide double staining; format: cell-based; details: 24 hours, mean +/- Standard Error
Procedure: (§1) Cells were stained with acridine orange/ethidium bromide double staining method to morphologically analyze whether cryptonin-induced cell death occurs by a necrotic pathway or by an apoptotic pathway. For this purpose, breast cancer cells were plated in a 24-well plate, with 10,000 cells being present in each well and incubated for 24 hours at the above-mentioned different concentrations of antimicrobial peptides. After incubation, a mixture of acridine orange (Sigma) (100 µg/ml) /ethidium bromide stain (Sigma) (100 µg/ml) prepared in PBS was applied to the cells and the cells were visualized using a FITC/CY3 filter on a fluorescent microscope (Nikon DS5MCU2). 200 cells from each group were counted according to the staining pattern. Cells were grouped as viable, apoptotic and necrotic according to the staining pattern of their nuclei (Spector et al., 1998). Viable cells were distinguished as having green chromatin nuclei in an organized structure, apoptotic cells were distinguished as having green or orange fragmented nuclei, and necrotic cells were distinguished as normal colored but having orange nuclei like normal cells (Ribble et al., 2005).

MDA-MB 231 cells [2] = assay: as above; format: cell-based; details: 24 hours, mean +/- Standard Error
Procedure: as §1

erythrocytes = details: dose of 25-200 µg/ml; Park et al. (2007); cited from earlier work
[3] = system: 3T3 Fibroblast Cell Membrane; details: 100 µg/ml, 24-hour incubation
Procedure: MCF-7 and MDA-MB 231 and 3T3 fibroblast cells were plated into sterile round slides with a diameter of 12 mm in the wells in 24-well plate such that each well contained 50,000 cells. The following day, the medium was replaced with a medium containing cryptonin at a concentration of 100 µg/ml. After 24-hour incubation, the cells were washed 2 times with 0.1 M sodium cacodylate buffer (pH 7.2) and fixed with 2.5% glutaraldehyde prepared in 0.1 M sodium cacodylate buffer for 2 hours. After the first fixation, the cells were washed again with 0.1 M sodium cacodylate buffer and fixed with 1% osmium tetroxide prepared in 0.2 M sodium cacodylate buffer for 30 minutes for the second time. After the cells were washed with 0.2 M sodium cacodylate buffer, they were taken in an increasing series of ethyl alcohol. Dehydration was performed by incubation 3 times with 30% alcohol for 5 minutes, 3 times with 50% alcohol for 5 minutes, 2 times with 70% alcohol for 10 minutes, 2 times with 85% alcohol for 15 minutes, 2 times with 95% alcohol for 15 minutes and 3 times with 100% alcohol for 10 minutes. After the slides were air-dried, they were coated with golden by BioRad SC 502 coating device. The cells were examined with Jeol Neoscope JCM-500 scanning electron microscope and their photographs were taken (Vitale et al., 1998; Hilchie et al., 2011).

MCF-7 cells [4] = details: 24 hours, positive control = 100%
Procedure: (§2) The lactate dehydrogenase (LDH) release assay is based on the measurement of a cytoplasmic enzyme, lactate dehydrogenase, activity released from damaged cells (Lobner, 2000) and is used for the assessment of cellular cytotoxicity. The cytotoxic effect of cryptonin on MCF-7 and MDA-MB 231 breast cancer cell lines was determined by measuring the activity of lactate dehydrogenase (LDH) enzyme released from damaged cells and a Cytotoxicity Detection Kit, LDH (Roche Molecular Diagnostics, Germany) was used for this purpose.
(§3) In LDH test, a negative control, a control group for spontaneous LDH release from the cells, and a positive control group for maximum LDH release were studied, as well as experimental groups to which peptide was administered. […] For this purpose, doses of 10, 25, 50 and 100 µg/ml were administered for MCF-7 cells and doses of 7.5, 10, 25 and 50 µg/ml were administered for MDA-MB 231 cells, for 24 hours. Cells were grown in the flasks of 75 cm, then removed with trypsin-EDTA and centrifuged. Cells were suspended in medium at 5000 cells per 100 µl, and 100 µl of cell suspension was transferred to 96-well plates. All control groups and experimental groups were studied with 3 wells and the experiment was repeated 3 times. After a 24-hour incubation, the media of the control groups were refreshed. The medium of the experimental groups was replaced with a medium containing different concentrations of peptide. The lactate dehydrogenase enzyme activity released from the cells after the cells were incubated with cryptonin for 24 hours was determined following the manufacturer's instructions. 5 µl of lysis solution (2% Triton-X-100) was added to the wells of the positive control group and the plate was incubated for 15 minutes at 37°C. To measure LDH activity, 100 µl of the freshly prepared reaction mixture containing catalyst (Diaphorase/NAD^+ mixture) and dye solution (iodotetrazolium chloride (INT) and sodium lactate) was added to each well. After 30 minutes of incubation in the dark at room temperature, the reaction was stopped by the addition of 50 µL of stop solution (1N HCl) to each well. The plates were shaken for 10 seconds on an orbital shaker and the spectrophotometric absorbance was measured at a test wavelength of 490 nm and a reference wavelength of 690 nm. The results were determined as % cytotoxicity. The mean absorbance values of the negative control were subtracted from the control and experimental groups, the positive control group was considered to be 100% cytotoxic and the cytotoxicities were calculated by comparing the control and experimental groups with positive control group using the following formula: [formula]

MDA-MB 231 cells [5] = details: 24 hours, positive control = 100%
Procedure: as §2, §3

Procedure for 3T3 fibroblast cells: Yellow MTT is reduced to purple formazan crystals by the activity of mitochondrial dehydrogenases in viable cells. The intensity of the resulting purple color is directly proportional to the number of viable cells. MTT test was performed in 96-well plates. To this end, the cells grown in the flasks were removed by trypsin-EDTA, then collected by centrifugation and the cell pellet was suspended in the medium such that 5000 cells would be present per 100 µl. 5000 cells were plated in each well of the plate. In the following day, the medium in the wells was removed, fresh medium was added to the control group, and a medium containing anti-microbial peptide was added to the experimental groups at 8 different concentrations. This medium contained 10% serum.
Cells were exposed to different concentrations of antimicrobial peptide for 24 hours. At the end of this period, 30 µl of a solution of 3-(4,5-dimethylthiazol-2-yl)-2,5-diphenyltetrazolium bromide (MTT) was added to each well in the plate. […] The optical density was measured at a test wavelength of 570 nm and a reference wavelength of 630 nm. […] The mean absorbance values obtained from the control group were accepted as 100% cell viability and the values obtained from the wells treated with antimicrobial peptide were assessed versus control group.

GLLNGLALRLGKRALKKIIKRLCR [cryptonin]
fibroblast cell viability (3T3 fibroblast cells; dose range 25-200 µg/ml): significantly reduced | number of viable cells (3T3 fibroblast cells; less at 10 µg/ml, more at 25, 50, 100 and 200 µg/ml, 24 hours, cells representing normal cells): reduced the number of viable cells | Viable cell % (MCF-7 cells [1]; 10 µg/ml): 98.89±5% | Viable cell % (MCF-7 cells [1]; 25 µg/ml): 85.3±4.8% | Viable cell % (MCF-7 cells [1]; 50 µg/ml): 1.07±1.1% | Viable cell % (MCF-7 cells [1]; 100 µg/ml): 0.06±0.2% | Viable cell % (MCF-7 cells [1]; 200 µg/ml): 2.14±1.8% | Viable cell % (MDA-MB 231 cells [2]; 10 µg/ml): 95.88±1.6% | Viable cell % (MDA-MB 231 cells [2]; 25 µg/ml): 95.53±2.9% | Viable cell % (MDA-MB 231 cells [2]; 50 µg/ml): 45.13±4.1% | Viable cell % (MDA-MB 231 cells [2]; 100 µg/ml): 0.04±0.1% | Viable cell % (MDA-MB 231 cells [2]; 200 µg/ml): 0±0% | hemolysis of erythrocytes (erythrocytes): 5% | effect on cell membrane (scanning electron microscope) [3]: disrupted the cell membrane integrity by forming pores, slits and blebs | LDH release (% cytotoxicity) (MCF-7 cells [4]; 25 µg/ml): 36.03±2.1% | LDH release (% cytotoxicity) (MCF-7 cells [4]; 50 ug/ml): 84.1±1.7% | LDH release (% cytotoxicity) (MCF-7 cells [4]; 100 µg/ml): 84.66±1.6% | LDH release (% cytotoxicity) (MDA-MB 231 cells [5]; 7.5 µg/ml): 7.09±0.7% | LDH release (% cytotoxicity) (MDA-MB 231 cells [5]; 10 µg/ml): 8.46±0.9% | LDH release (% cytotoxicity) (MDA-MB 231 cells [5]; 25 µg/ml): 24.24±2.1% | LDH release (% cytotoxicity) (MDA-MB 231 cells [5]; 50 µg/ml): 45.90±1%
